Active and inactive are the calls of the source. The rule behind the calls is not given here.
How the values were obtained:
[1] = tested on: RAW264.7; assay: Antiinflammatory activity in LPS-stimulated mouse RAW264.7 cells assessed as inhibition of beta-gal-tagged COX2 promoter activity pretreated 30 mins before LPS administration measured after 24 hrs by luciferase reporter gene assay relative to control; type: functional, cell-based
[2] = tested on: RAW264.7; assay: Antiinflammatory activity in LPS-stimulated mouse RAW264.7 cells assessed as inhibition of COX2 protein expression at 10 to 100 uM pretreated 30 mins before LPS administration measured after 24 hrs by Western blot analysis; type: functional, cell-based

Compound	IC50 [1]	inhibition [1]	inhibition [2]
C=C1C(=O)[C@@]23[C@@H]4CC5=C(C(=O)CC5(C)C)[C@@](C)(O4)[C@@H]2CC[C@@H]1[C@H]3O [CROTONKINENSIN A]	7.14 µM	Dose-dependent effect	Active
C=C1C(=O)[C@@]23[C@@H]4C[C@H]5C(=CCC5(C)C)[C@@](C)(O4)[C@@H]2CC[C@@H]1[C@H]3O [CROTONKINENSIN B]	5.49 µM	Dose-dependent effect	Active
